US8790654B2, “Glycosylceramide adjuvant for saccharide antigens” (Novartis AG, priority 2004, dated 2014)

Tested on: CRM protein carrier
Experiment: CRM-specific Ig titre in mice immunised with MenC-CRM conjugate with or without α-GalCer
Format: in vivo
Details: MenC-CRM conjugate and α-GalCer, compared with conjugate alone; 2wp2 and 2wp3
Method: C) Immunisation schedule for mice with different polysaccharides, plain, conjugated or admixed with protein carriers, with and without α-GalCer. Ten groups of wild-type C57BL/6 mice were primed on day 0 with: 1) PBS, 2) 0.1 μg with α-GalCer, 3) 10 μg MenC polysaccharide, 4) 20 μg CRM protein carrier, 5) 30 μg of a MenC-CRM conjugate, 6) 10 μg MenC polysaccharide admixed with CRM protein carrier, or the compositions in 3)-6) and α-GalCer (groups 7-10). Mice were boosted two and four weeks after they were primed with the same composition with which they were primed. Mice were bled 2, 4 and 6 weeks after initial priming (2wp1, 2wp2 and 2wp3) and the levels of antibodies against both the MenC polysaccharide and the CRM carrier were measured.
FIG. 5: α-GalCer enhances the specific antibody response against both the MenC polysaccharide and the CRM protein carrier in a MenC-CRM conjugate. Wild-type mice were primed with 10 μg MenC polysaccharide, 20 μg CRM protein carrier, 10 μg MenC polysaccharide admixed with CRM protein carrier (MenC+CRM), or 30 μg of a MenC-CRM conjugate, or the same compositions with α-GalCer. Mice were boosted two and four weeks after they were primed with the same composition with which they were primed.

Q: CCCCCCCCCCCCCCCCCCCCCCCCCC(=O)N[C@@H](CO[C@H]1O[C@H](CO)[C@H](O)[C@H](O)[C@H]1O)[C@H](O)[C@H](O)CCCCCCCCCCCCCC [α-GalCer, α-galactosylceramide] was tested. Which “CRM-specific Ig titre” value did it give?
A: enhanced
